For 1 compound, IC50 and cytotoxic effects results are on record in patent US5866576A, “Epoxide-containing compounds” (Cell Therapeutics, Inc., priority 1997, dated 1999).

The structures appear in SMILES notation. pIC50: −log10 of the molar value.

The test system of data set [1] is normal human bone marrow stromal cells (MSC). The experiment in a line: human bone marrow stromal cell (MSC) proliferation in response to PDGF BB and IL-1α. The class given is cell-based. Particulars: Table III, PDGF BB 50 ng/ml and IL-1α 10 ng/ml. The procedure, abridged: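 Serum-starved (20–24 h) normal human bone marrow stromal cells preincubated 1 h with compound, then stimulated with PDGF BB (50 ng/ml) and IL-1α (10 ng/ml) plus 3H-thymidine for 24 h. Proliferation read as 3H-thymidine incorporation into DNA; IC50 derived per compound.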

Another data set relates to thymocytes. As to the kind of experiment: murine thymocyte proliferation assay co-stimulated by ConA and IL-2 (FIGS. 7A-7E). The format is cell-based, Balb/C mice. The following applies: Mus musculus.
A further data set concerns Balb/3T3 cells. The experiment in a line: Balb/3T3 cytotoxicity assay (BCECF-AM). The class given is cell-based. Particulars: FIGS. 8C, 8D. The method, then:
In conjuction with the Balb/3T3 proliferation assay conducted above, a Balb/3T3 cytotoxicity assay was conducted to determine that the inhibition on proliferation was not due to cytotoxic effects. This assay is similar to the assay decribed above except tritiated thymidine was not added and after 18-24 hours incubation with PDGF/BB and a lOuM solution of 2,7-bis-(2-carboxyethyl)-5(and-6)carboxyflouresceinacetoxymethyl ester (BCECF-AM) was added for 30 minutes at 37° C. (BCECF is a compound that when cleaved by esterases, yields a fluorescent product in viable cells only, therefore providing a measure of viable cell numbers). Following sufficient incubation, BCECF is replaced with PBS and the plate examined with flourescence in a Millipore "cytofluor." The data is compiled and plotted.

Another data set has as its system lymph node cells. The experiment in a line: ovalbumin-induced proliferation in murine lymph cells (FIG. 13). The class given is cell-based, Balb/C mice. Particulars: Mus musculus, OVA 200 μg/ml. The text has this:
This example illustrates effects of the inventive compounds on ovalbumin-induced proliferation in murine lymph cells. Lymphnode cells contain a mixture of lymphoid cells: T-cells, B-cells and macrophages. Although proliferating cells in this assay are T-cells, the response obtained depends on type of antigen-presenting cell (e.g., macrophages) as well as elaboration of various immunoregulatory cytokines. Thus, this assay serves as a good model for T-cell mediated responses and as a valuable screening tool in identifying compounds useful in immunosuppressive therapeutic applications.
Murine T-cells proliferate in vitro in response to a soluble protein antigen if first primed with a corresponding antigen in vivo. This in vivo priming usually involves emulsifying the antigen in complete Freunds adjuvant and injecting this preparation into an appropriate site on a mouse. In this assay the antigen employed was chicken ovalbumin(OVA). Following emulsification in Freund's complete adjuvant, 50 μg of OVA were injected into both hind footpads of adult Balb/C mice. Fourteen days later the draining lymph nodes(popliteal) were removed and a single cell suspension was prepared in RPMI-1640 (10%FCS) medium. Two hundred thousand lymph node cells are then plated into wells of flat-bottom 96-well plates. Inventive compouds nos. 1410, 1553 (racemic), 1553(S), 1560 and 1565 were added to appropriate wells at various concentrations. OVA, at a final concentration of 200 μg/ml, was added to appropriate wells. Positive and negative controls were established on each plate, all assay variables being set up in quadruplicate.
The plates were incubated in a humidified, 5% CO2 incubator for 5 days. On the fifth day, 1 μCi of tritiated thymidine was added to each well and the plates were incubated for an additional 4 hours. The plates were harvested and the incorporation of 3H-TdR was determined in a liquid scintillation counter. The CPM data was then used to calculate experimental IC50 values for the compounds tested. Again, IC50 is defined as that concentration of compound resulting in 50% inhibition of 3H-TdR incorporation of the positive control.

In the case of `Cn1cnc2c1c(=O)n(CCCCCCCC1CO1)c(=O)n2C` (centres unmarked) [Compound 1560, 1-(8,9-Oxidononyl)-3,7-dimethylxanthine], the pIC50 in data set [1] was 5.18; in the data set with thymocytes (FIG. 7C), 4.66; in the data set on thymocytes (FIGS. 7D and 7E), 4.85; in the data set on lymph node cells it was 4.47. In the data set on Balb/3T3 cells, the cytotoxic effects result was “without exhibiting cytotoxic effects”.

A word on the pIC50: it is −log10 of the IC50, conventionally taken in molar units.
